Measurements reported in patent US20230312550A1, “N-(2-(4-CYANOTHIAZOLIDIN-3-YL)-2-OXOETHYL)-QUINOLINE-4-CARBOXAMIDES” (AstraZeneca AB, priority 2020, published 2023).
≈ marks a conversion by molar mass, not a printed value.

What was measured:
FAP [1] = molecular target: FAP (Mus musculus (Mouse), UniProt P97321); experiment: FAP plasma inhibition assay, mouse plasma; assay type: biochemical; details: mouse plasma diluted 1:67, Ala-Pro-AMC 75 μM
Procedure: This assay was adapted from the method described in Example 237 for detection of FAP target engagement enzyme activity in plasma. Plasma (anticoagulant K2EDTA) was used as the enzyme source: Human plasma (Pooled from AZ Biobank), Mouse plasma (AZ AST Biobank), and Cynomolgus plasma (BioIVT, #NHP00PLK2FNN, lot CYN222895). 384-Well black fluotrack PS plates (Greiner 781076) were used. 20 μL diluted plasma (Cynomolgus and Human plasma dilution 1:40, Mouse plasma dilution 1:67) in buffer (PBS, 0.1% BSA) was added to 0.6 μL compounds (in DMSO). Compounds were tested using 10 CR, 3 fold dilution series from 500 nM FAC. Two replicates for each assay point were run on the same plate. A fluorescence blank read was taken before substrate addition. […] Plates were incubated for 40 min at rt in the dark. […] IC50 values were determined by plotting % inhibition versus log compound concentration.

[2] = molecular target: Prolyl endopeptidase, Prolyl Oligopeptidase (hPREP) (Homo sapiens (Human), UniProt P48147); experiment: hPrep inhibition assay; assay type: biochemical; details: hPREP 0.6 nM, Z-Gly-Pro-amino-methylcoumarin 50 μM; read-out: PREP IC50
Method in brief: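 Fluorogenic read-out (340 nm excitation, 460 nm emission) after 20 min at rt, using 50 μM final Z-Gly-Pro-aminomethylcoumarin and 0.6 nM final enzyme, following 15 min compound preincubation. Buffer pH 7.5 with glutathione and Triton X-100. IC50 via one-site model on % inhibition vs log concentration.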

hFAP (M39-A757) = hFAP (M39-A757) (Homo sapiens (Human), UniProt Q12884); experiment: hFAP binding assay (surface plasmon resonance); details: SPR, 20° C.; for hFAP Binding assay k(off) / hFAP Binding assay k(on): single cycle kinetics; for Kd: n = 1 or geometric mean n = 2-4
[3] = Metabolic stability in human liver microsomes (HLM); details: human
Procedure: Metabolic stability in HLM was measured as described in J Comput Aided Mol Des 2015, 29, 795.

[4] = Metabolic stability in rat hepatocytes (rHep); details: n = 1 or geometric mean of n = 2-3
[5] = molecular target: human Fibroblast activation protein alpha (hFAP) (Homo sapiens (Human), UniProt Q12884); experiment: hFAP inhibition assay (tight binders); assay type: biochemical; details: Ala-Pro-AMC 20 μM, n = 1 or geometric mean n = 2-6; also: hFAP 2.4 pM
Procedure: The plates were read on a PHERAstar® reader with excitation 340 nm and emission 460 nm. Data were analyzed in Genedata Screener®. IC50 values were determined by plotting % inhibition versus log compound concentration and using a one site dose response model.

Caco-2 cell permeability = details: human
Procedure: Caco-2 cell permeability was measured as described in Mol Pharm 2017, 14, 1601.

Kinetic solubility = details: kinetic from dmso stock
Procedure: Kinetic solubility was measured as described in Comput Aided Mol Des 2015, 29, 795.

[6] = Metabolic stability in human hepatocytes (hHep); assay type: in vitro ADME; details: n = 1 or geometric mean of n = 2
FAP [7] = molecular target: FAP (Homo sapiens (Human), UniProt Q12884); experiment: hFAP inhibition assay; assay type: biochemical; details: hFAP […], Ala-Pro-AMC 20 μM; n = 1 or geometric mean n = 2-3
Method in brief: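 Compounds (10-point, 3-fold dilutions from 50 μM top) were preincubated 15 min at rt in the dark with 0.48 nM hFAP in pH 7.4 Tris/NaCl/Chaps buffer. Reaction was started with substrate (40 μM solution) and ran 30 min at rt. Read by fluorescence (340/460 nm); IC50 from one-site fit.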

[8] = HLM CLint, n = 1 or average of n = 2-3
[9] = Solubility, kinetic solubility, n = 1 or average of n = 2-3

Sequence of human Fibroblast activation protein alpha (hFAP) (Q12884 38-760): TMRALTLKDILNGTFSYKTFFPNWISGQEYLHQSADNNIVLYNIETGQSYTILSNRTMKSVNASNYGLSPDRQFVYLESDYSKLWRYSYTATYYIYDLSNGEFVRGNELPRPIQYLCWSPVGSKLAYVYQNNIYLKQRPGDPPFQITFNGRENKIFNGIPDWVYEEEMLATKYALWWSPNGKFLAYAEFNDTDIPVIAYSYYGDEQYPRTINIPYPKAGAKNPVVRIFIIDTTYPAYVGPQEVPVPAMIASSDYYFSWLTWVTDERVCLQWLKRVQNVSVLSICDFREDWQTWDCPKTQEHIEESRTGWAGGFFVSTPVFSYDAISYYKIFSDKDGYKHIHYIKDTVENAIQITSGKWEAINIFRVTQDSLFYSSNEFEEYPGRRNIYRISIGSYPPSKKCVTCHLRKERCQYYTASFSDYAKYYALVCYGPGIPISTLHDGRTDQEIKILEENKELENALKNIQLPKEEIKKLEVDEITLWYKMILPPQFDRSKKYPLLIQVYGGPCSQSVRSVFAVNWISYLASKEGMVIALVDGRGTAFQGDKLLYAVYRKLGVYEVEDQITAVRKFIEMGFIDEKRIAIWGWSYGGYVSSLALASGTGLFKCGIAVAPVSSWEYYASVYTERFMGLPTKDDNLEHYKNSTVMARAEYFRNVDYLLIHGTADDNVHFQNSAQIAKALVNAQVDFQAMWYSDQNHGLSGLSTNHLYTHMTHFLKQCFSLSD
Sequence of Prolyl endopeptidase, Prolyl Oligopeptidase (hPREP) (P48147 whole entry): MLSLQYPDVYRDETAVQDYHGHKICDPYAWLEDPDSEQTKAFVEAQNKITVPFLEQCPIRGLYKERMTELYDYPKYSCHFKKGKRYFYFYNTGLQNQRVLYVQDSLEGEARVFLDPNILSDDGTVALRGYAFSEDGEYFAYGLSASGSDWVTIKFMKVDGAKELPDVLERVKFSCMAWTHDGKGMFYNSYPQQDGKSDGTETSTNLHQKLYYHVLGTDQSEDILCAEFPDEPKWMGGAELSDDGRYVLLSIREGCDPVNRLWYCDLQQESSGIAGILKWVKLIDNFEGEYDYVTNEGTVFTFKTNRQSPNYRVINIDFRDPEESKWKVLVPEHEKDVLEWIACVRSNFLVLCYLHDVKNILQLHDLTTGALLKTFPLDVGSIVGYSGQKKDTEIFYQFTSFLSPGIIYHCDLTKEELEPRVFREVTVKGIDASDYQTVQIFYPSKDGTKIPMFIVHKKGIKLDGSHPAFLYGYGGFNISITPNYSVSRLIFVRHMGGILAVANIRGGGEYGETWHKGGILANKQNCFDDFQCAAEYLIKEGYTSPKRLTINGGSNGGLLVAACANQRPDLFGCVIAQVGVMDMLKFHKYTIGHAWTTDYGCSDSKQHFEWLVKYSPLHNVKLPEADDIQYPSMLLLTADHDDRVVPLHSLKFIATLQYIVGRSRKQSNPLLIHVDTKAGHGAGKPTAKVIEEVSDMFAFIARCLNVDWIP
Sequence of FAP (Mus musculus (Mouse), UniProt P97321) (P97321 24-761): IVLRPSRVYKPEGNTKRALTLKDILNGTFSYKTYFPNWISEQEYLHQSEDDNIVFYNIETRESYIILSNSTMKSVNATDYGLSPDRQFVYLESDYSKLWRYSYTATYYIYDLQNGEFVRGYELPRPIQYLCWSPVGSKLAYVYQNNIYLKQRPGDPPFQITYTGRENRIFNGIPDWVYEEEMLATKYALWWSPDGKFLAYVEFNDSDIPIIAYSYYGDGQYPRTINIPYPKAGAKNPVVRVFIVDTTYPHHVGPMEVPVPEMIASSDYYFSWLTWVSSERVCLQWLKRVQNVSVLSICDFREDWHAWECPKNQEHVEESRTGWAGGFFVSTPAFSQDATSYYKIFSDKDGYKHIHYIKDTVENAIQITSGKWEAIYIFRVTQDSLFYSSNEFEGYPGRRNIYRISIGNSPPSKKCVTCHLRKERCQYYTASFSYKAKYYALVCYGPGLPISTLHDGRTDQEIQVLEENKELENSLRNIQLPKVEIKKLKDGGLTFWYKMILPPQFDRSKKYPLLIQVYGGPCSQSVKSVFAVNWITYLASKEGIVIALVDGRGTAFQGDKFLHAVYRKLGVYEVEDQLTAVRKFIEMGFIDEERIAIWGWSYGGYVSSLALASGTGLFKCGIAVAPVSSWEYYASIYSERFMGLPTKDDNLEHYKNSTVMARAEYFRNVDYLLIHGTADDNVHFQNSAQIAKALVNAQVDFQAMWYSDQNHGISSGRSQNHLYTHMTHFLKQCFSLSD
Sequence of hFAP (M39-A757) (Q12884 39-757): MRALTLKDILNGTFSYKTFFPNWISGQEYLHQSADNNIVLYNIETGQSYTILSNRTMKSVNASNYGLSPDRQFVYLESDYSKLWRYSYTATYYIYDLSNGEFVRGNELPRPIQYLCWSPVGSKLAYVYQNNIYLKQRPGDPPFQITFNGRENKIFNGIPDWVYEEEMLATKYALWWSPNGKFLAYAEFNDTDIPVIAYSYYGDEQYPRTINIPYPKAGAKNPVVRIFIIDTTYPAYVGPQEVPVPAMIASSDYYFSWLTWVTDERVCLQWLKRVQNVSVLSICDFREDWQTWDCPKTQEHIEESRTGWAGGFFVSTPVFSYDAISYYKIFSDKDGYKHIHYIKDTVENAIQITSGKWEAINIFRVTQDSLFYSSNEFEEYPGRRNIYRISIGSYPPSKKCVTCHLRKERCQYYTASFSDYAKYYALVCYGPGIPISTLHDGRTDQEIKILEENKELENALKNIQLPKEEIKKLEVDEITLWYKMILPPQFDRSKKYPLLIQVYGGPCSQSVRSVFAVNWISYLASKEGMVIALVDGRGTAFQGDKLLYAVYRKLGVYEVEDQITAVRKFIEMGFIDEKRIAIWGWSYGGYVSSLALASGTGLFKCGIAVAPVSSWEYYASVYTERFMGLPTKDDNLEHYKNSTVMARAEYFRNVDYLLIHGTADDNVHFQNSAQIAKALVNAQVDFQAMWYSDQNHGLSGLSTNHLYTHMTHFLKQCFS
Sequence of FAP (Homo sapiens (Human), UniProt Q12884) (Q12884 38-760): as the sequence (Q12884 38-760) above

Structure (SMILES)	IC50 (FAP [1])	IC50 [2]	hFAP Binding assay k(off) (hFAP (M39-A757))	hFAP Binding assay k(on) (hFAP (M39-A757))	microsomal CLint [3, 8]	rHep CLint [4]	IC50 [5]	Papp A→B (Caco-2 cell permeability)	Papp B→A (Caco-2 cell permeability)	efflux ratio (Caco-2 cell permeability)	solubility (Kinetic solubility; [9])	hHep CLint [6]	Kd (hFAP (M39-A757))	microsomal CLint [3]	solubility (Kinetic solubility)	Papp (Caco-2 cell permeability)	IC50 (FAP [7])
Cc1nn(C2CCOCC2)c(C)c1-c1ccc2nccc(C(=O)NCC(=O)N3CSC[C@H]3C#N)c2c1 [Example 172, (R)—N-(2-(4-Cyanothiazolidin-3-yl)-2-oxoethyl)-6-(3,5-dimethyl-1-(tetrahydro-2H-pyran-4-yl)-1H-pyrazol-4-yl)quinoline-4-carboxamide]	0.6 nM	540 nM	0.000076 s⁻¹	2400000 M⁻¹ s⁻¹													
CS(=O)(=O)C[C@@H]1CN(c2ccc3nccc(C(=O)NCC(=O)N4CSC[C@H]4C#N)c3c2)CCO1 [Example 94, N-(2-((R)-4-Cyanothiazolidin-3-yl)-2-oxoethyl)-6-((S)-2-((methylsulfonyl)-methyl)morpholino)quinoline-4-carboxamide]		1800 nM	0.000099 s⁻¹	1900000 M⁻¹ s⁻¹	7.1 µL/min/mg	2.2 μL/min/1E6	0.071 nM	0.15 ×10⁻⁶ cm/s	4.4 ×10⁻⁶ cm/s	29	920 µM (≈ 463 µg/mL)	<1 μL/min/1E6	0.074 nM				
CC1(C)CCN(c2ccc3nccc(C(=O)NCC(=O)N4CSC[C@H]4C#N)c3c2)C(=O)O1 [Example 112, (R)—N-(2-(4-Cyanothiazolidin-3-yl)-2-oxoethyl)-6-(6,6-dimethyl-2-oxo-1,3-oxazinan-3-yl)quinoline-4-carboxamide]	0.8 nM	3600 nM	0.00014 s⁻¹	440000 M⁻¹ s⁻¹													
N#C[C@@H]1CSCN1C(=O)CNC(=O)c1ccnc2ccc(N3CCOC4(CCOCC4)C3)cc12 [Example 99, (R)—N-(2-(4-cyanothiazolidin-3-yl)-2-oxoethyl)-6-(1,9-dioxa-4-azaspiro[5.5]undecan-4-yl)quinoline-4-carboxamide]		1100 nM	0.0002 s⁻¹	2100000 M⁻¹ s⁻¹		8.1 μL/min/1E6	0.12 nM	0.46 ×10⁻⁶ cm/s	21 ×10⁻⁶ cm/s	46		1.9 μL/min/1E6	0.11 nM	16 µL/min/mg	800 µM (≈ 385 µg/mL)		
N#C[C@@H]1CSCN1C(=O)CNC(=O)c1ccnc2ccc(-c3ccn[nH]3)cc12 [Example 196, (R)—N-(2-(4-Cyanothiazolidin-3-yl)-2-oxoethyl)-6-(1H-pyrazol-5-yl)-quinoline-4-carboxamide]	0.2 nM	84 nM	0.00026 s⁻¹	3200000 M⁻¹ s⁻¹													
N#C[C@@H]1CSCN1C(=O)CNC(=O)c1ccnc2ccc(-c3cnn(C4CCOCC4)c3)cc12 [Example 173, (R)—N-(2-(4-Cyanothiazolidin-3-yl)-2-oxoethyl)-6-(1-(tetrahydro-2H-pyran-4-yl)-1H-pyrazol-4-yl)quinoline-4-carboxamide]	0.2 nM	940 nM	0.000054 s⁻¹	110000 M⁻¹ s⁻¹													
N#C[C@@H]1CSCN1C(=O)CNC(=O)c1ccnc2ccc(N3CCC4(CC3)OCCO4)cc12 [Example 228, (R)—N-(2-(4-cyanothiazolidin-3-yl)-2-oxoethyl)-6-(1,4-dioxa-8-azaspiro[4.5]decan-8-yl)quinoline-4-carboxamide]		1200 nM				9 μL/min/1E6	0.087 nM	25 ×10⁻⁶ cm/s	27 ×10⁻⁶ cm/s	0.9		<1 μL/min/1E6		< 3 µL/min/mg	879 µM (≈ 411 µg/mL)	0.9 ×10⁻⁶ cm/s	
C[C@@H]1OCCN(c2ccc3nccc(C(=O)NCC(=O)N4CSC[C@H]4C#N)c3c2)[C@H]1C [Example 82, N-(2-((R)-4-Cyanothiazolidin-3-yl)-2-oxoethyl)-6-((2S,3S)-2,3-dimethyl-morpholino)quinoline-4-carboxamide]	0.4 nM	930 nM	0.000071 s⁻¹	1400000 M⁻¹ s⁻¹													
N#C[C@@H]1CSCN1C(=O)CNC(=O)c1ccnc2ccc(-c3cnc4n3CCCC4)cc12 [Example 175, (R)—N-(2-(4-Cyanothiazolidin-3-yl)-2-oxoethyl)-6-(5,6,7,8-tetrahydroimidazo[1,2-a]pyridin-3-yl)quinoline-4-carboxamide]	0.4 nM	760 nM	0.00012 s⁻¹	1400000 M⁻¹ s⁻¹													
COC1(C)CCN(c2ccc3nccc(C(=O)NCC(=O)N4CSC[C@H]4C#N)c3c2)CC1 [Example 42, (R)—N-(2-(4-Cyanothiazolidin-3-yl)-2-oxoethyl)-6-(4-methoxy-4-methylpiperidin-1-yl)quinoline-4-carboxamide]		880 nM	0.000054 s⁻¹	1800000 M⁻¹ s⁻¹	21 µL/min/mg	7.6 μL/min/1E6	0.053 nM	2.8 ×10⁻⁶ cm/s	33 ×10⁻⁶ cm/s	12		2.7 μL/min/1E6	0.03 nM				
CC1(F)CN(c2ccc3nccc(C(=O)NCC(=O)N4CSC[C@H]4C#N)c3c2)C1 [Example 24, (R)—N-(2-(4-Cyanothiazolidin-3-yl)-2-oxoethyl)-6-(3-fluoro-3-methyl-azetidin-1-yl)quinoline-4-carboxamide]	0.4 nM	510 nM	0.00048 s⁻¹	25000000 M⁻¹ s⁻¹													
Cc1cc(N2CCOCC2)cc2c(C(=O)NCC(=O)N3CSC[C@H]3C#N)ccnc12 [Example 9]	0.6 nM																
CC1(C)CCN(c2ccc3nccc(C(=O)NCC(=O)N4CSC[C@H]4C#N)c3c2)CC1 [Example 33, (R)—N-(2-(4-Cyanothiazolidin-3-yl)-2-oxoethyl)-6-(4,4-dimethylpiperidin-1-yl)quinoline-4-carboxamide]		220 nM	0.000052 s⁻¹	1100000 M⁻¹ s⁻¹	92 µL/min/mg	44 μL/min/1E6	0.27 nM	7.5 ×10⁻⁶ cm/s	19 ×10⁻⁶ cm/s	2.5	85 µM (≈ 37.2 µg/mL)		0.059 nM				0.34 nM
